In series [1] the test system is Venezuelan equine encephalitis virus. The experiment in a line: Antiviral activity against Venezuelan equine encephalitis virus infected in human MRC5 cells assessed as inhibition of viral infection at 100 uM relative to control. The series is classed as functional.
Series [2] shares this test system. The experiment in a line: Antiviral activity against Venezuelan equine encephalitis virus infected in human MRC5 cells assessed as virus induced cell death at 100 uM relative to control. The series is classed as functional.
Series [3] has the same test system. Kind of series: Antiviral activity against Venezuelan equine encephalitis virus infected in human MRC5 cells assessed as inhibition of virus induced cytopathic effect. The series is classed as functional, organism-based. For orientation: Damage to the host cells serves as the signal in cytopathic effect assays.
Series [4] can be described thus: Cytotoxicity against human MRC-5 cells assessed as reduction in cell viability. It counts as toxicity, cell-based, MRC5.
A short description of series [5]: Safety index, ratio of CC50 for cytotoxicity against human MRC-5 cells to EC50 for antiviral activity against Venezuelan equine encephalitis virus infected in human MRC5 cells. The series is classed as toxicity, cell-based. Particulars: read-out: Ratio CC50/EC50.

On to `O=c1[nH]cc(CO)c(=O)[nH]1`, for which the inhibition at 100 µM in series [1] turned out to be 16.8%. Also, the Activity in series [2] is on record as 7.97%.

In the case of `O=c1[nH]cc(COCc2ccccc2)c(=O)[nH]1`, the inhibition at 100 µM in series [1] was found to be 9.66%. In addition, the Activity in series [2] is on record as 0.22%.

With `O=c1[nH]c(=O)n([C@@H]2O[C@H](CO)[C@@H](O)[C@H]2O)cc1COCc1ccccc1Cl`, the inhibition at 100 µM in series [1] is 30.9%. In addition, in series [2], the Activity is on record as 12.17%.

As to `CC(C)(C)C(OCc1cn([C@@H]2O[C@H](CO)[C@@H](O)[C@H]2O)c(=O)[nH]/c1=N\O)c1ccccc1Cl` (stereo partly specified), the inhibition at 100 µM in series [1] came to 95.3%. The Activity in series [2] was 30.28%. In series [3], the EC50 was determined as 37.6 µM. Moreover, in series [4], the CC50 is 135 µM. Also, the selectivity ratio in series [5] is 3.59.

With `CC(C)C(OCc1cn([C@@H]2O[C@H](CO)[C@@H](O)[C@H]2O)c(=O)[nH]c1=O)c1ccccc1` (stereo partly specified), the inhibition at 100 µM in series [1] came to 29%. The Activity in series [2] is 9.09%.

In the case of `Cc1ccccc1C(OCc1cn([C@@H]2O[C@H](CO)[C@@H](O)[C@H]2O)c(=O)[nH]/c1=N\O)C(C)(C)C` (stereo partly specified), in series [1], the inhibition at 100 µM was found to be 24.4%. Besides, in series [2], the Activity was found to be 18.59%.

Turning to `CC(C)(C)C(OCc1cn([C@@H]2O[C@H](CO)[C@@H](O)[C@H]2O)c(=O)[nH]c1=O)c1ccccc1` (stereo partly specified), the inhibition at 100 µM in series [1] stood at 16.6%. Besides, the Activity in series [2] turned out to be 17.18%.

Consider `CCC(OCc1c[nH]c(=O)[nH]c1=O)c1ccccc1` (stereo unspecified), for which the inhibition at 100 µM in series [1] was determined as 24.8%. The Activity in series [2] was 6.21%.

As for `CC(C)(C)C(OCc1cn([C@@H]2O[C@H](CO)[C@@H](O)[C@H]2O)c(=O)[nH]c1=N)c1ccccc1Cl` (stereo partly specified), the inhibition at 100 µM in series [1] stood at 29.3%. The Activity in series [2] turned out to be 18.8%.

As to `CC(C)C(OCc1cn([C@@H]2O[C@H](CO)[C@@H](O)[C@H]2O)c(=O)[nH]c1=N)c1ccccc1` (stereo partly specified), the inhibition at 100 µM in series [1] is 28.2%. Moreover, the Activity in series [2] amounted to 7.99%.

Consider `N=c1[nH]c(=O)n([C@@H]2O[C@H](CO)[C@@H](O)[C@H]2O)cc1COC(c1ccccc1)C1CCCCC1` (stereo partly specified), for which the inhibition at 100 µM in series [1] was found to be 24.9%. In series [2], the Activity worked out at 17.83%.

Regarding `N=c1[nH]c(=O)n([C@@H]2O[C@H](CO)[C@@H](O)[C@H]2O)cc1COCc1ccccc1Cl`, the inhibition at 100 µM in series [1] came out at 29%. Also, the Activity in series [2] is 10.11%.

For the molecule `CC(OCc1cn([C@@H]2O[C@H](CO)[C@@H](O)[C@H]2O)c(=O)[nH]/c1=N\O)c1ccccc1` (stereo partly specified), the inhibition at 100 µM in series [1] was determined as 10.5%. In addition, the Activity in series [2] is on record as 5.54%.

As for `Cc1ccccc1C(OCc1cn([C@@H]2O[C@H](CO)[C@@H](O)[C@H]2O)c(=O)[nH]c1=O)C(C)(C)C` (stereo partly specified), in series [1], the inhibition at 100 µM turned out to be 34%. Besides, the Activity in series [2] worked out at 27.83%.

`CC(OCc1cn([C@@H]2O[C@H](CO)[C@@H](O)[C@H]2O)c(=O)[nH]c1=N)c1ccccc1` (stereo partly specified): the inhibition at 100 µM in series [1] turned out to be 31%. The Activity in series [2] is given as 11.51%.

As to `CC(C)C(OCc1c[nH]c(=O)[nH]c1=O)c1ccccc1` (stereo unspecified), in series [1], the inhibition at 100 µM amounted to 5.87%. Further, in series [2], the Activity was 7.76%.

As for `CCC(OCc1cn([C@@H]2O[C@H](CO)[C@@H](O)[C@H]2O)c(=O)[nH]/c1=N\O)c1ccccc1` (stereo partly specified), in series [1], the inhibition at 100 µM stood at 10.5%. For the same molecule, the Activity in series [2] is reported as 4.87%.

Take `N=c1[nH]c(=O)n([C@@H]2O[C@H](CO)[C@@H](O)[C@H]2O)cc1COCc1ccccc1`: the inhibition at 100 µM in series [1] worked out at 24.9%. For the same molecule, the Activity in series [2] is 18.86%.

For `CC(C)C(OCc1cn([C@@H]2O[C@H](CO)[C@@H](O)[C@H]2O)c(=O)[nH]/c1=N\O)c1ccccc1` (stereo partly specified), in series [1], the inhibition at 100 µM was 16.5%. In addition, the Activity in series [2] was found to be 9.54%.

With `CC(C)(C)C(OCc1c[nH]c(=O)[nH]c1=O)c1ccccc1` (stereo unspecified), in series [1], the inhibition at 100 µM is 11.7%. The Activity in series [2] was determined as 4.02%.

`O=c1[nH]/c(=N\O)c(COC(c2ccccc2)C2CCCCC2)cn1[C@@H]1O[C@H](CO)[C@@H](O)[C@H]1O` (stereo partly specified): the inhibition at 100 µM in series [1] came to 35.5%. In series [2], the Activity is given as 25.09%.

Consider `Cc1ccccc1C(OCc1c[nH]c(=O)[nH]c1=O)C(C)(C)C` (stereo unspecified), for which the inhibition at 100 µM in series [1] turned out to be 21.4%. The Activity in series [2] is given as 3.54%.

`O=c1[nH]c(=O)n([C@@H]2O[C@H](CO)[C@@H](O)[C@H]2O)cc1COCc1ccccc1`: the inhibition at 100 µM in series [1] was determined as 25.5%. Besides, in series [2], the Activity was found to be 22.88%.

With `O=c1[nH]/c(=N\O)c(COCc2ccccc2)cn1[C@@H]1O[C@H](CO)[C@@H](O)[C@H]1O`, the inhibition at 100 µM in series [1] was determined as 12.4%. For the same molecule, the Activity in series [2] is on record as 16.09%.

On to `O=c1[nH]/c(=N\O)c(CO)cn1[C@@H]1O[C@H](CO)[C@@H](O)[C@H]1O`, for which, in series [1], the inhibition at 100 µM worked out at 5.24%. In addition, in series [2], the Activity was determined as 4.99%.

Turning to `O=c1[nH]cc(COC(c2ccccc2)C2CCCCC2)c(=O)[nH]1` (stereo unspecified), the inhibition at 100 µM in series [1] turned out to be 10.5%. The Activity in series [2] amounted to 8.05%.

Turning to `CC(C)(C)C(OCc1cn([C@@H]2O[C@H](CO)[C@@H](O)[C@H]2O)c(=O)[nH]/c1=N\O)c1ccccc1` (stereo partly specified), the inhibition at 100 µM in series [1] is 30.3%. Moreover, the Activity in series [2] came out at 20.09%.

As to `CCC(OCc1cn([C@H]2O[C@H](CO)[C@@H](O)[C@H]2O)c(=O)[nH]c1=O)c1ccccc1` (stereo partly specified), the inhibition at 100 µM in series [1] was 26.3%. In addition, in series [2], the Activity was determined as 20.81%.

In the case of `CC(C)(C)C(OCc1c[nH]c(=O)[nH]c1=O)c1ccccc1Cl` (stereo unspecified), the inhibition at 100 µM in series [1] was 11.6%. Besides, in series [2], the Activity is on record as 4.74%.

As to `O=c1[nH]c(=O)n([C@H]2O[C@H](CO)[C@@H](O)[C@H]2O)cc1COCc1ccccc1`, in series [1], the inhibition at 100 µM came out at 23%. Also, the Activity in series [2] was found to be 11.03%.

For the molecule `N=c1[nH]c(=O)n([C@@H]2O[C@H](CO)[C@@H](O)[C@H]2O)cc1CO`, in series [1], the inhibition at 100 µM was found to be 12.2%. Also, the Activity in series [2] amounted to 29.79%.

With `CC(OCc1c[nH]c(=O)[nH]c1=O)c1ccccc1` (stereo unspecified), the inhibition at 100 µM in series [1] came to 10.1%. Moreover, in series [2], the Activity stood at 11.63%.

On to `CC(OCc1cn([C@@H]2O[C@H](CO)[C@@H](O)[C@H]2O)c(=O)[nH]c1=O)c1ccccc1` (stereo partly specified), for which the inhibition at 100 µM in series [1] worked out at 16.8%. In addition, the Activity in series [2] worked out at 5.05%.

For the molecule `O=c1[nH]c(=O)n([C@H]2O[C@H](CO)[C@@H](O)[C@H]2O)cc1COCc1ccccc1Cl`, the inhibition at 100 µM in series [1] amounted to 18.8%. Further, the Activity in series [2] is 12.73%.

Take `O=c1[nH]cc(COCc2ccccc2Cl)c(=O)[nH]1`: the inhibition at 100 µM in series [1] came out at 12.9%. Also, the Activity in series [2] came out at 9.35%.

In the case of `CCC(OCc1cn([C@@H]2O[C@H](CO)[C@@H](O)[C@H]2O)c(=O)[nH]c1=N)c1ccccc1` (stereo partly specified), the inhibition at 100 µM in series [1] was found to be 14.3%. The Activity in series [2] was 8.31%.

Take `O=c1[nH]c(=O)n([C@@H]2O[C@H](CO)[C@@H](O)[C@H]2O)cc1CO`: in series [1], the inhibition at 100 µM is 17.4%. Besides, in series [2], the Activity is 11.71%.

For the molecule `Cc1ccccc1C(OCc1cn([C@@H]2O[C@H](CO)[C@@H](O)[C@H]2O)c(=O)[nH]c1=N)C(C)(C)C` (stereo partly specified), the inhibition at 100 µM in series [1] was found to be 34.4%. Moreover, the Activity in series [2] turned out to be 22.95%.

`O=c1[nH]/c(=N\O)c(COCc2ccccc2Cl)cn1[C@@H]1O[C@H](CO)[C@@H](O)[C@H]1O`: the inhibition at 100 µM in series [1] stood at 41.1%. For the same molecule, in series [2], the Activity stood at 6.38%.

Regarding `CC(C)C(OCc1cn([C@H]2O[C@H](CO)[C@@H](O)[C@H]2O)c(=O)[nH]c1=O)c1ccccc1` (stereo partly specified), the inhibition at 100 µM in series [1] stood at 20.5%. Moreover, the Activity in series [2] turned out to be 17.19%.

Consider `CC(C)(C)C(OCc1cn([C@@H]2O[C@H](CO)[C@@H](O)[C@H]2O)c(=O)[nH]c1=N)c1ccccc1` (stereo partly specified), for which, in series [1], the inhibition at 100 µM is 13.1%. Moreover, in series [2], the Activity worked out at 10.91%.

Consider `O=c1[nH]c(=O)n([C@@H]2O[C@H](CO)[C@@H](O)[C@H]2O)cc1COC(c1ccccc1)C1CCCCC1` (stereo partly specified), for which the inhibition at 100 µM in series [1] turned out to be 15.9%. Moreover, the Activity in series [2] is given as 16.28%.

Regarding `CC(C)(C)C(OCc1cn([C@@H]2O[C@H](CO)[C@@H](O)[C@H]2O)c(=O)[nH]c1=O)c1ccccc1Cl` (stereo partly specified), the inhibition at 100 µM in series [1] came to 37.2%. The Activity in series [2] is on record as 20.09%.

Take `CCC(OCc1cn([C@@H]2O[C@H](CO)[C@@H](O)[C@H]2O)c(=O)[nH]c1=O)c1ccccc1` (stereo partly specified): in series [1], the inhibition at 100 µM is 22.1%. Besides, the Activity in series [2] is on record as 8.2%.

Regarding `CC(OCc1cn([C@H]2O[C@H](CO)[C@@H](O)[C@H]2O)c(=O)[nH]c1=O)c1ccccc1` (stereo partly specified), the inhibition at 100 µM in series [1] stood at 30.6%. Besides, the Activity in series [2] was 25.09%.

`O=c1nc(NO)ccn1[C@@H]1O[C@H](CO)[C@@H](O)[C@H]1O` [N-HYDROXYCYTIDINE]: in series [3], the half-maximal effective concentration (EC50) was 2.3 µM. Also, in series [4], the CC50 stood at 95.5 µM. For the same molecule, the selectivity ratio in series [5] amounted to 41.5.

One may read the inhibition as how much of the control response was suppressed. By EC50 is commonly meant the concentration at which the effect is half-maximal. One may read the CC50 as the concentration that lowers cell viability or growth by half.

(Values after ChEMBL document CHEMBL5365426, “Modification of N-hydroxycytidine yields a novel lead compound exhibiting activity against the Venezuelan equine encephalitis virus” (Bioorg Med Chem Lett, 2023).)
